{"source": "patent US20160145242A1", "about": "“PHENYLIMIDAZOLE DERIVATIVE, AND THERAPEUTIC MEDICINE OR PREVENTIVE MEDICINE FOR INFLAMMATORY DISEASE, ETC” (NIPPON SODA CO., LTD., priority 2013, published 2016)", "biological_target": "T1, guinea pig lung-derived leukotriene A4 hydrolase (Cavia porcellus, UniProt P19602)", "T1 construct": "guinea pig lung-derived leukotriene A4 hydrolase; from tissue; host or cells: Dunkin-Hartley guinea pig lung", "T1 sequence (P19602 1-611)": "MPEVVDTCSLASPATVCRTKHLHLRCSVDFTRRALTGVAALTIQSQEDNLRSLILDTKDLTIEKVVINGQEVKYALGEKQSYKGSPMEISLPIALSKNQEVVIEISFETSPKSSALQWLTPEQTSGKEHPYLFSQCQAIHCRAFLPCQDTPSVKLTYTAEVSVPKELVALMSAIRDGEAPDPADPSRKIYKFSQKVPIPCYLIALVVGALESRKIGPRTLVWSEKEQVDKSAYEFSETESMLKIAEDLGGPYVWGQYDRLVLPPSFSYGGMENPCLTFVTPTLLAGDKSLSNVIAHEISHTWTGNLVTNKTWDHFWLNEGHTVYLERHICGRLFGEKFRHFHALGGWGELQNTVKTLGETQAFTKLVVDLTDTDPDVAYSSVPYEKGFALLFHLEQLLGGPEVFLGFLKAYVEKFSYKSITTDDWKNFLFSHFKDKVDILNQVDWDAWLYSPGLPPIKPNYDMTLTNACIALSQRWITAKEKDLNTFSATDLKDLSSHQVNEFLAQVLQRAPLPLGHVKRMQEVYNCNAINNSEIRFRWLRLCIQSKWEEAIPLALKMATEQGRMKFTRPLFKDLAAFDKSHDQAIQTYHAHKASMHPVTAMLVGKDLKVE", "test": "Leukotriene A4 hydrolase activity inhibitory action", "type": "biochemical", "conditions": "read-out: leukotriene A4 hydrolase activity inhibition rate", "experimental": "The inhibitory action of the compound according to the present invention with respect to the activity of the present enzyme was examined using guinea pig lung-derived leukotriene A4 hydrolase.\nDunkin-Hartley guinea pig lung-derived leukotriene A4 hydrolase was reacted with […] of leukotriene A4 and the amount of leukotriene B4 which was a reaction product was measured by an enzyme-linked immunosorbent assay. 3 μM of the compound of the present invention dissolved in dimethyl sulfoxide was added to the reaction system and the inhibition rate of leukotriene B4 generation (leukotriene A4 hydrolase activity inhibition rate) was measured."}
{"smiles": "CC(=O)N1CCN(c2ccc(N)c(-n3ccnc3)c2)CC1", "note": "[Compound 1-1, 4-acetyl-1-(4-amino-3-imidazole-1-yl-phenyl)piperazine]", "values": [{"measurement": "inhibition at 3 µM", "result": 14, "unit": "%"}]}
